Several values for one entry are separate records, joined by “and”; a condition that tells them apart may be missing. Equal entries are not always repeated.
What was measured:
[1] = system: mice; assay: Analgesic assay, tail flick response after intracerebral ventrical injection; assay type: in vivo; details: individual mouse
[2] = system: N-terminal directed Met-enkephalin antibody; assay: Radioimmunoassay, N-terminal directed antibody; assay type: binding; details: fractions from RP-18; 1.3 g wet weight of chromaffin granules isolated from 30 g of adrenal medulla
Description: (§1) Bovine adrenal glands were obtained from a local slaughterhouse and stored on ice until used (2 hrs). The medullas were dissected out and chromaffin granules prepared by the procedure of Smith and Winkler [Biochem. J., 103, & 80 (1967)]. The isolated chromaffin granules or whole adrenal medullas were homogenized (10:1 V/W) in 1 M acetic acid, 20 mM HCl containing 1μg/ml PMSF and pepstatin. The procedures for extraction, Sephadex column elution and trypsin digestion have been described [Lewis, R. V. et al., Proc. Nat'l. Acad. Sci., U.S.A. 75, & 021 (1978)]. The radioreceptor assay employed neuroblastoma x glioma hybrid cells [Gerber, L. D. et al., Brain Res. 1515, 117 (1978)] with ^3 H-Leuenkephalin as the competing ligand. Radioimmunoassays were performed using a C-terminal directed Leu-enkephalin antibody and a N-terminal directed Met-enkephalin antibody. The characteristics of these antibodies have been described previously [Lewis. R. V., et al. Biochem. Biophys. Res. Commun. 89, 822 (1979)] .
(§2) In order to determine whether fractions 6,7, and 16 were indeed separate entities differing chromatographically from the enkephalins, these fractions were lyophilized, redissolved and rechromatographed. Each opioid peptide eluted at its original position. […]

[3] = system: C-terminal directed Leu-enkephalin antibody; assay: Radioimmunoassay, C-terminal directed antibody; assay type: binding; details: fractions from RP-18; 1.3 g wet weight of chromaffin granules isolated from 30 g of adrenal medulla
Description: as §1, §2

[4] = system: mice; details: intracerebraventricular or intravenous administration to mice; cited from earlier work
[5] = system: rats; details: intracerebraventricular or intravenous administration to rats; cited from earlier work

In the case of “Beta-endorphin (YGGFMTSEKSQTPLVTLFKNAIIKNAYKKGE; Beta-endorphin; UniProt P01189 237-267, looked up)”, the Response ([1]; Dose 4.5nm, Volume 5nl) is reported as “Pos. and Neg” and the “Tail flick response, Post Injection Time 20” value ([1]; Dose 4.5nm, Volume 5nl) is reported as 8.

In the case of Leu-enkephalin [Leu-enk (std)], the “Radioimmunoassay N-Terminal” value [2] is given as 0.4 nmoles/fraction, the “Radioimmunoassay C-Terminal” value [3] is given as 1.0 nmoles/fraction and the analgesia [4] is given as “weak and short lined anagesia”. For the same substance, the analgesia [5] was “weak and short lined anagesia”.

With methionine enkephalin [Met Enk] the “Radioimmunoassay N-Terminal” value [2] was 1.0 nmoles/fraction, the “Radioimmunoassay C-Terminal” value [3] was 0.03 nmoles/fraction and the Response ([1]; Dose 120 nm, Volume 10nl.) was “Neg”. The “Tail flick response, Post Injection Time 10” value ([1]; Dose 120 nm, Volume 10nl.) was 6.3 and 5.9 and 5.0, the “Tail flick response, Post Injection Time 2 min.” value ([1]; Dose 120 nm, Volume 10nl.) was 4.0 and 4.7 and the analgesia [4] was “weak and short lined anagesia”. For the same substance, the analgesia [5] was “weak and short lined anagesia”.
